Test results published in ChEMBL document CHEMBL4330064, “Phytoestrogens and their synthetic analogues as substrate mimic inhibitors of CYP1B1” (Eur J Med Chem, 2019).
pIC50, pKi: −log10 of the molar value.

Columns and labels:
Cytochrome P450 1B1 [1] = target: T1, Cytochrome P450 1B1 (Homo sapiens, UniProt Q16678); assay: Inhibition of CYP1B1 in human MCF7 cells assessed as reduction in TCDD-induced CYP1B1-mediated EROD activity by EROD assay; format: cell-based
T1 sequence (Q16678 whole entry): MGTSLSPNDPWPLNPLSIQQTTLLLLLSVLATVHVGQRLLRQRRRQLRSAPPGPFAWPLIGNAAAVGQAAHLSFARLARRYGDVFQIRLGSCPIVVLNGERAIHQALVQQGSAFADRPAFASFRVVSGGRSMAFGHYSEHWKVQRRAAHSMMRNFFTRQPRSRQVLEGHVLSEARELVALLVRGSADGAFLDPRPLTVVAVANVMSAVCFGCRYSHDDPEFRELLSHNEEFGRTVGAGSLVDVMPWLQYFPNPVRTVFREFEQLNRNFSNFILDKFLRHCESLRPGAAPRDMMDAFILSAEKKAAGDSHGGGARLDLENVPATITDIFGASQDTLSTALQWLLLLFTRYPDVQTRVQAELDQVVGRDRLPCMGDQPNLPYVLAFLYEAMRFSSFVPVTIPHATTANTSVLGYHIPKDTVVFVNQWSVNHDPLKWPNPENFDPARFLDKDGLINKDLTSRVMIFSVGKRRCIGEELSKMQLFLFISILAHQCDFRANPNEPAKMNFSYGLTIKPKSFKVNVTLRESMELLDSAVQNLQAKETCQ

Cytochrome P450 1B1 [2] = target: T1, Cytochrome P450 1B1; assay: Inhibition of CYP1B1 in human MCF7 cells assessed as reduction in DMBA-induced CYP1B1-mediated EROD activity by EROD assay; format: cell-based
Cytochrome P450 1B1 [3] = target: T1, Cytochrome P450 1B1; assay: Inhibition of human CYP1B1 using 7-Ethoxyresorufin as substrate after 30 mins in presence of NADP+ by EROD assay
Cytochrome P450 1A1 [4] = target: T2, Cytochrome P450 1A1 (Homo sapiens, UniProt P04798); assay: Inhibition of human CYP1A1 by EROD assay; format: ADME
Cytochrome P450 1A2 [5] = target: T3, Cytochrome P450 1A2 (Homo sapiens, UniProt P05177); assay: Inhibition of human CYP1A2 using 7-Ethoxyresorufin as substrate after 50 mins in presence of NADP+ by EROD assay; format: ADME
T3 sequence (P05177 whole entry): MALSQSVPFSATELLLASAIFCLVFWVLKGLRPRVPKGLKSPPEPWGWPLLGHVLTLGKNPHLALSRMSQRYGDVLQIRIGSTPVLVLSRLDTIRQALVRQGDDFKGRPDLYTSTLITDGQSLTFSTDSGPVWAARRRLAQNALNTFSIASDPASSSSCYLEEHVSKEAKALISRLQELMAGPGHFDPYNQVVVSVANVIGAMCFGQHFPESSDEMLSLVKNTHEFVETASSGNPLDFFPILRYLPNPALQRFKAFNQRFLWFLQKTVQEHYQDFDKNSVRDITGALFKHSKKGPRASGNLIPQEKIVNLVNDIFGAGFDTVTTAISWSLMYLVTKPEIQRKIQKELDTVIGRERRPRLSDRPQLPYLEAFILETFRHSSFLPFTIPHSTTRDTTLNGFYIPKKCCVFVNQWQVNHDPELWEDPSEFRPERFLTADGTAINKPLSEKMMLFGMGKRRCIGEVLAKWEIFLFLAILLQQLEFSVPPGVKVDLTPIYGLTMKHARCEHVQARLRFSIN

Cytochrome P450 1A1 [6] = target: T2, Cytochrome P450 1A1; assay: Inhibition of human CYP1A1 using 7-Ethoxyresorufin as substrate after 15 mins in presence of NADP+ by EROD assay; format: ADME
Cytochrome P450 1A1 [7] = target: T2, Cytochrome P450 1A1; assay: Inhibition of […] CYP1A1 expressed in Escherichia coli DH5alpha cell membranes coexpressing human NADPH-cytochrome P450 reductase using 7-Ethoxyresorufin as substrate preincubated for 3 mins followed by NADPH addition measured after 10 mins by EROD assay; format: ADME
Cytochrome P450 1B1 [8] = target: T1, Cytochrome P450 1B1; assay: Inhibition of human CYP1B1 expressed in Escherichia coli DH5alpha cell membranes coexpressing human NADPH-cytochrome P450 reductase using 7-Ethoxyresorufin as substrate by EROD assay
Cytochrome P450 1B1 [9] = target: T1, Cytochrome P450 1B1; assay: Inhibition of CYP1B1 in human HepG2 cells; format: cell-based
Cytochrome P450 1A2 [10] = target: T3, Cytochrome P450 1A2; assay: Inhibition of […] CYP1A2 expressed in Escherichia coli DH5alpha cell membranes coexpressing human NADPH-cytochrome P450 reductase using 7-Ethoxyresorufin as substrate preincubated for 3 mins followed by NADPH addition measured after 10 mins by EROD assay; format: ADME
Cytochrome P450 1B1 [11] = target: T1, Cytochrome P450 1B1; assay: Inhibition of […] CYP1B1 expressed in Escherichia coli DH5alpha cell membranes coexpressing human NADPH-cytochrome P450 reductase using 7-Ethoxyresorufin as substrate preincubated for 3 mins followed by NADPH addition measured after 10 mins by EROD assay
Cytochrome P450 1B1 [12] = target: T1, Cytochrome P450 1B1; assay: Mixed type inhibition of human CYP1B1 by EROD assay
Cytochrome P450 1A1 [13] = target: T2, Cytochrome P450 1A1; assay: Inhibition of human CYP1A1 using ethoxyresorufin as substrate by MROD assay; format: ADME
Cytochrome P450 1B1 [14] = target: T1, Cytochrome P450 1B1
Description: Inhibition of human CYP1B1 by EROD assay

Cytochrome P450 1A1 [15] = target: T2, Cytochrome P450 1A1; assay: Inhibition of human CYP1A1 using ethoxyresorufin as substrate by EROD assay; format: ADME

T2 sequence (P04798 whole entry): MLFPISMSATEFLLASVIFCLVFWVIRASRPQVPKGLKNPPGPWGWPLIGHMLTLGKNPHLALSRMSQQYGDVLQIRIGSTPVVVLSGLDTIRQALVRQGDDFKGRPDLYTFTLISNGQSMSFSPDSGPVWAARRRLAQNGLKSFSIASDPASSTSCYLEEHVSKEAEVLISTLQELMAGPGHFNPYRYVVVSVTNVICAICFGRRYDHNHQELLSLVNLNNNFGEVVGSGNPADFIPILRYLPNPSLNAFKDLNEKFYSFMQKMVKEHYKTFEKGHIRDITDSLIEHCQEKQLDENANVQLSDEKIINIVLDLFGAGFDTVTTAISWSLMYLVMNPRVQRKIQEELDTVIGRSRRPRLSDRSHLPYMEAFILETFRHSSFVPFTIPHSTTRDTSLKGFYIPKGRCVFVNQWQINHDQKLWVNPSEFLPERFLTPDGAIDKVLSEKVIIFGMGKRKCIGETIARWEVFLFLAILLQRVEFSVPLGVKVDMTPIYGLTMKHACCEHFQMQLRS

Structure (SMILES)	INH (Cytochrome P450 1A1 [7]) [µM]	INH (Cytochrome P450 1A2 [10]) [µM]	INH (Cytochrome P450 1B1 [11]) [µM]	further results
C[C@]12CCCCC1=CC[C@@H]1[C@@H]2CC[C@]2(C)C(=O)[C@H](F)C[C@@H]12				pIC50 (Cytochrome P450 1B1 [1]): 5.60; pIC50 (Cytochrome P450 1B1 [2]): 6.30
COc1ccc(-c2cc(=O)c3cc(OC)c4cccc(OC)c4c3[nH]2)cc1				pIC50 (Cytochrome P450 1B1 [3]): 8.39
COc1ccc2c(c(OC)cc3c(=O)cc(-c4ccc(F)cc4)oc32)c1OC				pIC50 (Cytochrome P450 1A1 [4]): 9.00
COc1cc2c(=O)cc(-c3cccc(Br)c3)[nH]c2c2c(OC)cccc12				pIC50 (Cytochrome P450 1B1 [3]): 8.44
COc1cc2c(=O)cc(-c3ccc(F)cc3)[nH]c2c2c(OC)cccc12				pIC50 (Cytochrome P450 1A2 [5]): 6.72; pIC50 (Cytochrome P450 1B1 [3]): 8.41; pIC50 (Cytochrome P450 1A1 [6]): 7.98
O=c1cc(-c2ccc(O)cc2)oc2cc(O)cc(O)c12 [APIGENIN]	4.1			
COc1ccc2cc3[n+](cc2c1OC)CCc1cc2c(cc1-3)OCO2 [BERBERINE]				pIC50 (Cytochrome P450 1B1 [8]): 7.03; pIC50 (Cytochrome P450 1B1 [9]): 5.60
O=c1cc(-c2ccccc2)oc2cc(O)cc(O)c12 [CHRYSIN]	6.2	0.42	0.28	
COc1cc(-c2oc3cc(O)cc(O)c3c(=O)c2O)ccc1O [ISORHAMNETIN]	25	137	30.1	
O=c1c(O)c(-c2ccc(O)cc2)oc2cc(O)cc(O)c12 [KAEMPFEROL]	52			
O=c1cc(-c2ccc(O)c(O)c2)oc2cc(O)cc(O)c12 [LUTEOLIN]	1.2	8.9	0.36	
O=c1c(O)c(-c2ccc(O)c(O)c2)oc2cc(O)cc(O)c12 [QUERCETIN]	77	418	23	
Oc1ccc(/C=C/c2cc(O)cc(O)c2)cc1 [RESVERATROL]				pKi (Cytochrome P450 1B1 [12]): 6.12; pIC50 (Cytochrome P450 1A1 [13]): 4.96; pIC50 (Cytochrome P450 1B1 [14]): 5.85; pIC50 (Cytochrome P450 1A1 [15]): 4.64
